Results from PubChem BioAssay AID248 (DTP/NCI, 2004).
Inconclusive results and toxic doses are left out. Cut-off read from the data, not from the text of the source: active = T/C of 150% or more; inactive = T/C below 125%. Peptide text beside a SMILES is read from it.

Tested on: L1210 leukemia ip in BDF1 mice, survival T/C
Assay: NCI In Vivo Anticancer Drug Screen. Data for tumor model L1210 Leukemia (intraperitoneal) in B6D2F1 (BDF1) mice
Conditions: endpoint: mean survival time, higher = longer survival
Outline: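 Transplantable tumor model; survival measured in treated vs vehicle control mice. Value = treated/control.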

[1] = dose: 50.0 mg/kg/injection, schedule: Q01DX009 (ip), vehicle: saline with Tween-80
[2] = dose: 100.0 mg/kg/injection, schedule: Q01DX009 (ip), vehicle: saline with Tween-80
[3] = dose: 100.0 mg/kg/injection, schedule: Q01DX001 (ip), vehicle: saline
[4] = dose: 200.0 mg/kg/injection, schedule: Q01DX001 (ip), vehicle: saline
[5] = dose: 400.0 mg/kg/injection, schedule: Q01DX001 (ip), vehicle: saline
[6] = dose: 100.0 mg/kg/injection, schedule: Q04DX003 (ip), vehicle: Klucel (hydroxypropylcellulose) (HPC)
[7] = dose: 200.0 mg/kg/injection, schedule: Q04DX003 (ip), vehicle: Klucel (hydroxypropylcellulose) (HPC)
[8] = dose: 400.0 mg/kg/injection, schedule: Q04DX003 (ip), vehicle: Klucel (hydroxypropylcellulose) (HPC)
[9] = dose: 100.0 mg/kg/injection, schedule: Q01DX001 (ip), vehicle: other
[10] = dose: 200.0 mg/kg/injection, schedule: Q01DX001 (ip), vehicle: other
[11] = dose: 400.0 mg/kg/injection, schedule: Q01DX001 (ip), vehicle: other
[12] = dose: 200.0 mg/kg/injection, schedule: Q01DX009 (ip), vehicle: saline with Tween-80
[13] = dose: 100.0 mg/kg/injection, schedule: Q04DX003 (ip), vehicle: saline with Tween-80
[14] = dose: 200.0 mg/kg/injection, schedule: Q04DX003 (ip), vehicle: saline with Tween-80
[15] = dose: 400.0 mg/kg/injection, schedule: Q04DX003 (ip), vehicle: saline with Tween-80
[16] = dose: 100.0 mg/kg/injection, schedule: Q01DX001 (ip), vehicle: saline with Tween-80
[17] = dose: 200.0 mg/kg/injection, schedule: Q01DX001 (ip), vehicle: saline with Tween-80
[18] = dose: 400.0 mg/kg/injection, schedule: Q01DX001 (ip), vehicle: saline with Tween-80
[19] = dose: 100.0 mg/kg/injection, schedule: Q01DX001 (ip), vehicle: carboxymethylcellulose (CMC)
[20] = dose: 200.0 mg/kg/injection, schedule: Q01DX001 (ip), vehicle: carboxymethylcellulose (CMC)
[21] = dose: 50.0 mg/kg/injection, schedule: Q01DX001 (ip), vehicle: carboxymethylcellulose (CMC)

Measured: T/C

CC(=O)OCc1ccc(-n2c(C(F)(F)F)nc3nc(Cl)c(Cl)nc32)o1
inactive: dose: 50.0 mg/kg/injection, schedule: Q01DX009 (ip), vehicle: saline 97 % of control | dose: 100.0 mg/kg/injection, schedule: Q01DX009 (ip), vehicle: saline 102 % of control | dose: 100.0 mg/kg/injection, schedule: Q04DX003 (ip), vehicle: saline 105 % of control | dose: 200.0 mg/kg/injection, schedule: Q01DX009 (ip), vehicle: saline 96 % of control | dose: 200.0 mg/kg/injection, schedule: Q04DX003 (ip), vehicle: saline 100 % of control | dose: 400.0 mg/kg/injection, schedule: Q01DX009 (ip), vehicle: saline 97 % of control | dose: 400.0 mg/kg/injection, schedule: Q04DX003 (ip), vehicle: saline 88 % of control

O=P(O)(O)CCC(O)CO (configuration not stated)
inactive: dose: 100.0 mg/kg/injection, schedule: Q04DX002 (ip), vehicle: saline 94 % of control | dose: 200.0 mg/kg/injection, schedule: Q04DX002 (ip), vehicle: saline 97 % of control | dose: 400.0 mg/kg/injection, schedule: Q04DX002 (ip), vehicle: saline 102 % of control

Cc1ccc2ccccc2[n+]1[O-]
inactive: dose: 25.0 mg/kg/injection, schedule: Q01DX009 (ip), vehicle: saline with Tween-80 100 % of control | dose: 25.0 mg/kg/injection, schedule: Q04DX002 (ip), vehicle: saline with Tween-80 93 % of control | [1] 96 % of control | dose: 50.0 mg/kg/injection, schedule: Q04DX002 (ip), vehicle: saline with Tween-80 104 % of control | dose: 75.0 mg/kg/injection, schedule: Q01DX001 (ip), vehicle: carboxymethylcellulose (CMC) 94 % of control | [2] 96 % of control | dose: 100.0 mg/kg/injection, schedule: Q04DX002 (ip), vehicle: saline with Tween-80 96 % of control | dose: 150.0 mg/kg/injection, schedule: Q01DX001 (ip), vehicle: carboxymethylcellulose (CMC) 96 % of control

O=[N+]([O-])c1ccc(-n2nccn2)cc1
inactive: dose: 75.0 mg/kg/injection, schedule: Q01DX001 (ip), vehicle: other 100 % of control | dose: 150.0 mg/kg/injection, schedule: Q01DX001 (ip), vehicle: other 107 % of control

CC(=O)Nc1ccc(SS(=O)(=O)c2ccc(NC(C)=O)cc2)cc1
inactive: [3] 95 % of control | [4] 101 % of control | [5] 101 % of control

COc1c(Cl)cc(Cl)cc1Cl
inactive: dose: 100.0 mg/kg/injection, schedule: Q01DX009 (ip), vehicle: saline sonified 96 % of control | [6] 101 % of control | dose: 200.0 mg/kg/injection, schedule: Q01DX009 (ip), vehicle: saline sonified 107 % of control | [7] 98 % of control | dose: 400.0 mg/kg/injection, schedule: Q01DX009 (ip), vehicle: saline sonified 97 % of control | [8] 104 % of control

OC(CCl)CNc1ccc(-c2ccccc2)cc1 (configuration not stated)
inactive: [9] 94 % of control | [6] 100 % of control | [10] 92 % of control | [7] 86 % of control | [11] 97 % of control

CCOC(=O)C=C1CCN(C)CC1
inactive: [1] 104 % of control | dose: 75.0 mg/kg/injection, schedule: Q01DX001 (ip), vehicle: saline 97 % of control | [2] 98 % of control | dose: 150.0 mg/kg/injection, schedule: Q01DX001 (ip), vehicle: saline 103 % of control | [12] 97 % of control | dose: 300.0 mg/kg/injection, schedule: Q01DX001 (ip), vehicle: saline 101 % of control

COC1C(O)C(CO)OC1n1ccc(N)nc1=O (configuration not stated)
inactive: [3] 95 % of control | [4] 95 % of control | [5] 98 % of control

NN(C(=O)c1ccccc1)C1CCCCC1
inactive: [13] 104 % of control | [14] 96 % of control | [15] 96 % of control

NC(=S)N/N=C/c1cc(Cl)cc(Cl)c1
inactive: [9] 96 % of control | [10] 102 % of control | [11] 106 % of control

CCOC(=O)N(C(=S)Nc1ccccc1)c1nc(C)cs1
inactive: dose: 100.0 mg/kg/injection, schedule: Q01DX001 (ip), vehicle: gum acacia 100 % of control | dose: 200.0 mg/kg/injection, schedule: Q01DX001 (ip), vehicle: gum acacia 111 % of control | dose: 400.0 mg/kg/injection, schedule: Q01DX001 (ip), vehicle: gum acacia 97 % of control

CSCCNC(=O)NS(=O)(=O)c1ccc(C)cc1
inactive: [13] 96 % of control | [14] 97 % of control | [15] 97 % of control

O=C(C1C(c2ccccc2)N1Cc1ccccc1)C1C(c2ccccc2)N1Cc1ccccc1 (configuration not stated)
inactive: dose: 75.0 mg/kg/injection, schedule: Q01DX001 (ip), vehicle: Klucel (hydroxypropylcellulose) (HPC) 101 % of control | dose: 150.0 mg/kg/injection, schedule: Q01DX001 (ip), vehicle: Klucel (hydroxypropylcellulose) (HPC) 88 % of control | dose: 300.0 mg/kg/injection, schedule: Q01DX001 (ip), vehicle: Klucel (hydroxypropylcellulose) (HPC) 93 % of control

Cc1ccc(S(=O)(=O)OC2CCC(N3C(=O)c4ccccc4C3=O)CC2)cc1 (configuration not stated)
inactive: [16] 100 % of control | [17] 102 % of control | [18] 98 % of control

O=C(O)c1cccn1-c1ccccc1
inactive: [16] 102 % of control | dose: 100.0 mg/kg/injection, schedule: Q04DX003 (ip), vehicle: other 96 % of control | [17] 103 % of control | dose: 200.0 mg/kg/injection, schedule: Q04DX003 (ip), vehicle: other 101 % of control | [18] 96 % of control | dose: 400.0 mg/kg/injection, schedule: Q04DX003 (ip), vehicle: other 89 % of control

CC(=O)c1ccccc1OCC(O)CN1CCN(c2cccc(C(F)(F)F)c2)CC1 (configuration not stated)
inactive: [13] 106 % of control | [14] 108 % of control | [15] 108 % of control

COc1ccc(OC)c2c1C=CCC2
inactive: [19] 96 % of control | [20] 91 % of control | dose: 400.0 mg/kg/injection, schedule: Q01DX001 (ip), vehicle: carboxymethylcellulose (CMC) 104 % of control

CC1(C)OCC(COCc2ccccc2)O1 (configuration not stated)
inactive: [13] 96 % of control | [14] 104 % of control | [15] 95 % of control

CCC[As](=O)(O)CCCc1ccccc1
inactive: dose: 0.78 mg/kg/injection, schedule: Q01DX009 (ip), vehicle: Klucel (hydroxypropylcellulose) (HPC) 100 % of control | dose: 1.56 mg/kg/injection, schedule: Q01DX009 (ip), vehicle: Klucel (hydroxypropylcellulose) (HPC) 87 % of control | dose: 3.13 mg/kg/injection, schedule: Q01DX009 (ip), vehicle: Klucel (hydroxypropylcellulose) (HPC) 101 % of control

CCOP(=O)(NCCc1ccccc1)OCC
inactive: [21] 109 % of control | [19] 109 % of control | [20] 101 % of control

O=C(/C=C(/c1ccccc1)P(=O)(c1ccccc1)c1ccccc1)c1ccccc1
inactive: [2] 86 % of control | [12] 89 % of control | dose: 400.0 mg/kg/injection, schedule: Q01DX009 (ip), vehicle: saline with Tween-80 88 % of control

C=CCOc1ccc(C=O)cc1OCC=C
inactive: [6] 101 % of control | [7] 96 % of control | [8] 101 % of control

CCOc1ccc(/C=C(\NC(=O)c2ccccc2)C(=O)Nc2ccccc2)cc1OC
inactive: [6] 100 % of control | [7] 87 % of control | [8] 91 % of control

CCOSc1ccc([N+](=O)[O-])cc1[N+](=O)[O-]
inactive: dose: 50.0 mg/kg/injection, schedule: Q01DX001 (ip), vehicle: saline 90 % of control | [3] 93 % of control | [4] 90 % of control | [5] 95 % of control

CC(NC(=O)C(CCC(=O)O)NC(=O)C(N)Cc1c[nH]c2ccccc12)C(=O)NCC(=O)NC(Cc1c[nH]c2ccccc12)C(=O)NC(CCC(=O)O)C(=O)NC(C)C(=O)NCC(=O)NCC(=O)O (configuration not stated) (H-WEAGWEAGG-OH; configuration not given here)
inactive: [21] 96 % of control | [19] 98 % of control | [20] 96 % of control

COC(=O)c1ccc(N(C)CCC(=O)CBr)cc1
inactive: [3] 95 % of control

COc1ccc(Cc2nnc(Cc3ccc(OC)c(OC)c3)nn2)cc1OC
inactive: [1] 89 % of control | [2] 93 % of control | [12] 87 % of control
